Literature values, collected in patent publication US7816404B2, “Methods for the preparation and use of ferric pyrophosphate citrate chelate compositions” (Rockwell Medical Technologies, Inc., priority 2007, dated 2010).

Conditions: stability constant with ferric ion

Row | SMILES | log Kstab for ferric ion
1 | O=C(O)CC(O)(CC(=O)O)C(=O)O [citrate] | 12
2 | O=P(O)(O)OP(=O)(O)O [pyrophosphate] | 22.2
